Data published in patent US9463211B2, “Skin salve for treating intertrigo” (priority 2007, dated 2016).

Test system: intertrigo
Assay: Topical application of the skin salve to patients suffering from intertrigo
Assay type: in vivo, human
Details: Example 2: person with diabetes, underside of breasts; before use of the skin salve
Protocol: In this experiment the skin salve made in Example 1 was evaluated on a person suffering from diabetes and intertrigo on the underside of their breasts. The intertrigo had caused the skin to be inflamed, burned, and was raw in some areas. This skin condition was painful and was aggravated by the patient's bra, heat, and sweat. Additionally, the intertrigo was an unsightly rash.
This patient had treated their intertrigo with a variety of over-the-counter salves and powders without success.
This patient topically applied the skin salve of this invention which was made by the procedure described in Example 1 to the inflamed skin under their breasts on two consecutive evenings after taking a bath. […]
In this experiment the skin salve made in Example 1 was evaluated on another person suffering from diabetes and intertrigo on the underside of their breasts. […]
In this experiment the skin salve made in Example 1 was evaluated on another person suffering from intertrigo on the underside of their breasts. […]
In this experiment the skin salve made in Example 1 was evaluated on a person suffering from intertrigo on the underside of their breasts. […]
In this experiment the skin salve made in Example 1 was evaluated on a person suffering from intertrigo on the underside of their breasts and the underside of their belly. […]

CC(C)O [isopropyl alcohol]
effect on intertrigo of the patient's earlier treatments: without any relief
